Data published in patent US20250361230A1, “LATS Inhibitors and Uses Thereof” (The USA, as Represented by the Secretary, Dept. of Heath …, priority 2022, published 2025).

Experiments:
Format in all cases: biochemical
LATS1 = molecular target: T1, LATS1 (Homo sapiens, UniProt O95835); test: RBC HotSpot kinase assay (33P-ATP, P81 filter-binding), LATS1; conditions: Table 28, biochemical kinase assay; read-out: LATS1 IC50
T1 sequence (O95835 1-1130): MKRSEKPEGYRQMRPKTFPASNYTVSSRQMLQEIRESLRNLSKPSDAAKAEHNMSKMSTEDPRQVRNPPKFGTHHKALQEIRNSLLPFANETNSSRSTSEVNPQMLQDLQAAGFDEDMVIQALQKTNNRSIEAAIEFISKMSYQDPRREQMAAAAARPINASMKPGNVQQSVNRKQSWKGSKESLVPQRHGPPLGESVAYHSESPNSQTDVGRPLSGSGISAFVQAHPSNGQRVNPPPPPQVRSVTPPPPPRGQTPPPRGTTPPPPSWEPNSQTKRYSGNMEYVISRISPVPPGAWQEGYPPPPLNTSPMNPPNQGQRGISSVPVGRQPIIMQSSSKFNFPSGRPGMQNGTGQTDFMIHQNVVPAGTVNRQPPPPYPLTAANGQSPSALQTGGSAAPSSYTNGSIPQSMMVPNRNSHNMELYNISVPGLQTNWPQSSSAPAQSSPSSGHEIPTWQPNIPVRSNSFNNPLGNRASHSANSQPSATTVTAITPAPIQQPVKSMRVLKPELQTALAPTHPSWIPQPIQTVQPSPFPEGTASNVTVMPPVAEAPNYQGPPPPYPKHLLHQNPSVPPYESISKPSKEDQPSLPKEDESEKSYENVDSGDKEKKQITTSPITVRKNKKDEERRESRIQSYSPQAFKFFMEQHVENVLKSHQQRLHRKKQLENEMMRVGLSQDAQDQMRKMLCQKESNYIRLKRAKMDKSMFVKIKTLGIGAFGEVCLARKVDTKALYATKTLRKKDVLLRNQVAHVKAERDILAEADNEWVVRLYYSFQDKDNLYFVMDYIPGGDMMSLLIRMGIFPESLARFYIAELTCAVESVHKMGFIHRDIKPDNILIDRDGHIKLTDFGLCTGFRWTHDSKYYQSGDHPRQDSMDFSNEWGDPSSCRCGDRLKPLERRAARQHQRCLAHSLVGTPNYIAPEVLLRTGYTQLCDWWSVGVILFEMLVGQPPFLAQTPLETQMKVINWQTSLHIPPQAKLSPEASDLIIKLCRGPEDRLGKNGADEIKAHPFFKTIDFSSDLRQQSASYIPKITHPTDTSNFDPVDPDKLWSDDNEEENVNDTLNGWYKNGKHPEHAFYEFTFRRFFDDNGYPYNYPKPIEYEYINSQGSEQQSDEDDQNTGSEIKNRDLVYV
Procedure: (§1) Biochemical kinase inhibitory data was obtained for various exemplary compounds prepared according to the above.
(§2) The reagents used are as follows: Base Reaction buffer; 20 mM Hepes (pH 7.5), 10 mM MgCl2, 1 mM EGTA, 0.01% Brij35, 0.02 mg/ml BSA, 0.1 mM Na3VO4, 2 mM DTT, […]. Required cofactors were added individually to each kinase reaction.
(§3) The reaction procedure was as follows: • 1) Substrates were prepared in freshly prepared Reaction Buffer. • 2) Any required cofactors were delivered to the substrate solution above. • 3) Kinase was delivered into the substrate solution and gently mixed. • 4) Compounds were delivered in 100% DMSO into the kinase reaction mixture by Acoustic technology (Echo550; nanoliter range), followed by incubation for 20 min at room temp. • 5) ^33P-ATP was delivered into the reaction mixture to initiate the reaction. • 6) The mixture was incubated for 2 hours at room temperature. • 7) Kinase activity was detected by P81 filter-binding method.
(§4) Using the above functional assay, the inhibitory activity of the compounds for LATS1/2 versus AKT was characterized. The assays were typically run in a 10-point curve, in singlet, to produce a titration curve from which an IC50 value was obtained.
(§5) The reagents used are as follows: Base Reaction buffer; 20 mM Hepes (pH 7.5), 10 mM MgCl2, 1 mM EGTA, 0.01% Brij35, 0.02 mg/ml BSA, 0.1 mM Na3VO4, 2 mM DTT, 1% DMSO. Required cofactors were added individually to each kinase reaction.
(§6) Biochemical kinase inhibitory data was obtained for various exemplary compounds prepared according to the above in accordance with the protocols described in Examples 4 and 8. All biological activities are IC50, in nM.

LATS2 = molecular target: T2, LATS2 (Homo sapiens, UniProt Q9NRM7); test: RBC HotSpot kinase assay (33P-ATP, P81 filter-binding), LATS2; conditions: Table 28, biochemical kinase assay; read-out: LATS2 IC50
T2 sequence (Q9NRM7 1-1088): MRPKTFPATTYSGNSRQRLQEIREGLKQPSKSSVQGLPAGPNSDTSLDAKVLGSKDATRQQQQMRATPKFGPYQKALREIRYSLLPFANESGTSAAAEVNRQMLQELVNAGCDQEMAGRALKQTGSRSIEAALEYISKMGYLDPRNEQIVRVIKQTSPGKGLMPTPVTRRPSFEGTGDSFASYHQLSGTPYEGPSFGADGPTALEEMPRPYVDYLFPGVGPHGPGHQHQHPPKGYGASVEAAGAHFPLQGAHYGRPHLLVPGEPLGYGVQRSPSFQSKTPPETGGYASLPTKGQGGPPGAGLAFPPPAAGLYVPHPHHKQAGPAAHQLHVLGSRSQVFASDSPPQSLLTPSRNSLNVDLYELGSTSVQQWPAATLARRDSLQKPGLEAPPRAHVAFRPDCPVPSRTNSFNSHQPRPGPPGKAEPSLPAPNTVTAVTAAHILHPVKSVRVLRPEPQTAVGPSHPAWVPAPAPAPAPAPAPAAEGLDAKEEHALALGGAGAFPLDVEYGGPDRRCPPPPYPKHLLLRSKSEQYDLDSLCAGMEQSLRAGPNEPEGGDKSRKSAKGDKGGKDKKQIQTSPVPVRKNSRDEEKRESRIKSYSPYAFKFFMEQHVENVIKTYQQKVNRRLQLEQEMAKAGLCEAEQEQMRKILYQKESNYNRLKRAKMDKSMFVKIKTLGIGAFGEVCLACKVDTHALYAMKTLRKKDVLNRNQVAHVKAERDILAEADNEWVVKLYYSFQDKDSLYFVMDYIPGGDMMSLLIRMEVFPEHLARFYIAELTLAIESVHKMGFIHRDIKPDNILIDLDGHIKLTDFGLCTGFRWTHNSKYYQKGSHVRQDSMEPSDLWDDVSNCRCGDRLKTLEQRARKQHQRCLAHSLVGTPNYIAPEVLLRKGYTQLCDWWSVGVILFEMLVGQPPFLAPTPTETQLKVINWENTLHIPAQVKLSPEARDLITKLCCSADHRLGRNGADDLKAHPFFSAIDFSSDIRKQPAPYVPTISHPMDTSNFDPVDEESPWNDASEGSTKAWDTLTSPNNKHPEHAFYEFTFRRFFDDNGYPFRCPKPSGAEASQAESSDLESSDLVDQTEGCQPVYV
Procedure: as §1, §2, §3, §4, §5, §6

AKT = AKT (Homo sapiens, UniProt P31749); test: RBC HotSpot kinase assay (33P-ATP, P81 filter-binding), AKT; conditions: Table 28, biochemical kinase assay; read-out: AKT IC50
Procedure: as §1, §2, §3, §4, §5, §6

Chain of AKT (P31749 whole entry): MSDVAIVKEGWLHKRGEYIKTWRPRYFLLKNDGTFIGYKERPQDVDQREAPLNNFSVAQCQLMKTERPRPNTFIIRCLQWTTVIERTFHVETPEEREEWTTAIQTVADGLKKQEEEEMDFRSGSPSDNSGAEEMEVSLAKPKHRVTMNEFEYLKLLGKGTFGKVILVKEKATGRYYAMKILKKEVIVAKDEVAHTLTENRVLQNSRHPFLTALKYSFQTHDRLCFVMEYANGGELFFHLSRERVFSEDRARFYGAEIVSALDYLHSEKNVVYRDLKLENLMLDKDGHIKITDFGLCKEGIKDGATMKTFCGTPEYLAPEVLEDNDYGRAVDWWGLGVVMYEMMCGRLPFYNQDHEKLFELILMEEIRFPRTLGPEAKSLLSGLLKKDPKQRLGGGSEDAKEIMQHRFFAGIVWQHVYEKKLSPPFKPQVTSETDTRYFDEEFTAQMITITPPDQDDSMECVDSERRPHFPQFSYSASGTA

| SMILES | IC50 (LATS1) | IC50 (LATS2) | IC50 (AKT) |
| --- | --- | --- | --- |
| C[C@@H]1CN(C(=O)[C@H]2CCCN2)C[C@H](C)[C@@]1(O)c1c(F)cc(-c2ccnc3[nH]cc(F)c23)cc1F [Compound 59, 4-(4-((3S,4R,5R)-1-(L-prolyl)-4-hydroxy-3,5-dimethylpiperidin-4-yl)-3,5-difluorophenyl)-3-fluoro-1H-pyrrolo[2,3-b]pyridine] | 0.0216 µM | 0.0103 µM | 1.47 µM |
| Cc1cc(-c2ccnc3[nH]cc(F)c23)cc(F)c1[C@@]1(O)[C@H](C)CN(C(=O)C2(N)CC(F)(F)C2)C[C@@H]1C [Compound 62, (1-amino-3,3-difluorocyclobutyl) ((3S,4s,5R)-4-(2-fluoro-4-(3-fluoro-1H-pyrrolo[2,3-b]pyridin-4-yl)-6-methylphenyl)-4-hydroxy-3,5-dimethylpiperidin-1-yl)methanone] | 0.0197 µM | 0.0043 µM | 5.88 µM |
| Cc1cc(-c2ccnc3[nH]cc(F)c23)cc(F)c1[C@@]1(O)[C@H](C)CN(C(=O)[C@@H]2CCCN2)C[C@@H]1C [Compound 63, 4-(4-((3S,4R,5R)-1-(L-prolyl)-4-hydroxy-3,5-dimethylpiperidin-4-yl)-3-fluoro-5-methylphenyl)-3-fluoro-1H-pyrrolo[2,3-b]pyridine] | 0.0085 µM | 0.0034 µM | 0.677 µM |
| Cc1cc(-c2ccnc3[nH]cc(F)c23)cc(F)c1[C@@]1(O)[C@H](C)CN(C(=O)[C@@H]2CC(F)(F)CN2)C[C@@H]1C [Compound 64, ((S)-4,4-difluoropyrrolidin-2-yl)((3S,4R,5R)-4-(2-fluoro-4-(3-fluoro-1H-pyrrolo[2,3-b]pyridin-4-yl)-6-methylphenyl)-4-hydroxy-3,5-dimethylpiperidin-1-yl)methanone] | 0.0067 µM | 0.0036 µM | 3.14 µM |
| Cc1cc(-c2ccnc3[nH]cc(F)c23)cc(F)c1[C@@]1(O)[C@H](C)CN(C(=O)[C@@H]2C[C@H](F)CN2)C[C@@H]1C [Compound 65, ((3S,4R,5R)-4-(2-fluoro-4-(3-fluoro-1H-pyrrolo[2,3-b]pyridin-4-yl)-6-methylphenyl)-4-hydroxy-3,5-dimethylpiperidin-1-yl)((2S,4S)-4-fluoropyrrolidin-2-yl)methanone] | 0.0087 µM | 0.0032 µM | 1.18 µM |
| Cc1cc(-c2ccnc3[nH]cc(F)c23)cc(F)c1[C@@]1(O)[C@H](C)CN(C(=O)[C@@H]2C[C@@H](F)CN2)C[C@@H]1C [Compound 66, ((3S,4R,5R)-4-(2-fluoro-4-(3-fluoro-1H-pyrrolo[2,3-b]pyridin-4-yl)-6-methylphenyl)-4-hydroxy-3,5-dimethylpiperidin-1-yl)((2S,4R)-4-fluoropyrrolidin-2-yl)methanone] | 0.013 µM | 0.003 µM | 0.673 µM |
| CNCC(=O)N1C[C@@H](C)[C@](O)(c2c(C)cc(-c3ccnc4[nH]cc(F)c34)cc2F)[C@@H](C)C1 [Compound 67, 1-((3S,4s,5R)-4-(2-fluoro-4-(3-fluoro-1H-pyrrolo[2,3-b]pyridin-4-yl)-6-methylphenyl)-4-hydroxy-3,5-dimethylpiperidin-1-yl)-2-(methylamino) ethan-1-one] | 0.0087 µM | 0.0028 µM | 0.577 µM |

More lines, now with the values ahead:

| IC50 (LATS1) | IC50 (LATS2) | IC50 (AKT) | SMILES |
| --- | --- | --- | --- |
| 0.697 µM | 0.428 µM | 0.125 µM | Cc1cc(-c2ccnc3[nH]cc(F)c23)cc(Cl)c1[C@@]1(O)[C@H](C)CN(C2COC2)C[C@@H]1C [Compound 49, (3R,4s,5S)-4-(2-chloro-4-(3-fluoro-1H-pyrrolo[2,3-b]pyridin-4-yl)-6-methylphenyl)-3,5-dimethyl-1-(oxetan-3-yl)piperidin-4-ol] |
| 0.0061 µM | 0.0247 µM | 0.906 µM | Cc1nc(-c2ccnc3[nH]cc(F)c23)ccc1[C@@]1(O)[C@H](C)CN(C2CCC2)C[C@@H]1C [Compound 50, (3R,4s,5S)-1-cyclobutyl-4-(6-(3-fluoro-1H-pyrrolo[2,3-b]pyridin-4-yl)-2-methylpyridin-3-yl)-3,5-dimethylpiperidin-4-ol] |
| 2.21 µM | 5.08 µM | > 10 µM | Cc1cc(-c2ccnc3[nH]cc(F)c23)ncc1[C@@]1(O)[C@H](C)CN(Cc2ccncc2)C[C@@H]1C [Compound 52, (3R,4s,5S)-4-(6-(3-fluoro-1H-pyrrolo[2,3-b]pyridin-4-yl)-4-methylpyridin-3-yl)-3,5-dimethyl-1-(pyridin-4-ylmethyl)piperidin-4-ol] |
| 0.003 µM | 0.0036 µM | 0.374 µM | C[C@@H]1CN(C(CF)CF)C[C@H](C)C1(O)c1ccc(-c2ccnc3[nH]cc(F)c23)cc1Cl (stereo partly drawn) [Compound 53, (3S,5R)-4-(2-chloro-4-(3-fluoro-1H-pyrrolo[2,3-b]pyridin-4-yl)phenyl)-1-(1,3-difluoropropan-2-yl)-3,5-dimethylpiperidin-4-ol] |
| 2.08 µM | 4.25 µM | > 10 µM | Cc1cc(-c2ccnc3[nH]cc(F)c23)ncc1C1(O)[C@H](C)CN(C2CCS(=O)(=O)CC2)C[C@@H]1C (stereo partly drawn) [Compound 56, 4-((3R,5S)-4-(6-(3-fluoro-1H-pyrrolo[2,3-b]pyridin-4-yl)-4-methylpyridin-3-yl)-4-hydroxy-3,5-dimethylpiperidin-1-yl)tetrahydro-2H-thiopyran 1,1-dioxide] |
